Test results taken from patent US9249152B2, “Cyano containing azabenzofuran compounds for the treatment of hepatitis C” (BRISTOL-MYERS SQUIBB COMPANY, priority 2014, dated 2016).
Like-named read-outs stand apart in the source and are kept apart here.

System: genotype 1b (Con-1) HCV replicon
Test: HCV replicon luciferase assay, genotype 1b (Con-1)
Type: cell-based
Settings: genotype 1b HCV replicon, Huh-7 cells, Renilla luciferase, 3 days
Description: The cell lines used to evaluate compounds consist of a human hepatocyte derived cell line (Huh-7) that constitutively expresses a genotype 1b (Con-1) HCV replicon or a genotype 1b (Con-1) HCV replicon with an asparagine replacing the cysteine at amino acid 316, or a genotype 2a (JFH-1) replicon, containing a Renilla luciferase reporter gene. These cells were maintained in Dulbecco's modified Eagle medium (DMEM) containing 10% FBS, 100 U/mL penicillin/streptomycin and 1.0 mg/mL G418.
To evaluate compound efficacy, titrated compounds were transferred to sterile 384-well tissue culture treated plates, and the plates were seeded with HCV replicon cells (50 μL at a density of 2.4×10^3 cells/well) in DMEM containing 4% FBS (final DMSO concentration at 0.5%). After 3 days incubation at 37° C., cells were analyzed for Renilla Luciferase activity using the EnduRen substrate (Promega cat #E6485) according to the manufacturer's directions. Briefly, the EnduRen substrate was diluted in DMEM and then added to the plates to a final concentration of 7.5 μM. The plates were incubated for at least 1 h at 37° C. then read on a Viewlux Imager (PerkinElmer) using a luminescence program. The 50% effective concentration (EC50) was calculated using the four-parameter logistic formula noted above.

[1] = Hepatitis C virus, Huh-7, 72 h, read-out: EC50 1b (class)
[2] = Hepatitis C virus, Huh-7, 72 h, read-out: EC50 (uM) 1b

**Q.** CNC(=O)c1c(-c2ccc(F)cc2)oc2nc(Cl)c(-c3ccc(OC)c(C(=O)NC(C)(C)C#N)c3)cc12 [Compound 10001] was tested. Which EC50 [1] did it give?
**A.** The EC50 was < 0.1 µM.

**Q.** And the EC50 [2]?
**A.** Its EC50 is 0.0738 µM.

**Q.** Which EC50 [1] does the source give for CNC(=O)c1c(-c2ccc(F)cc2)oc2nc(Cl)c(-c3ccc(OC)c(C(=O)NC4(C#N)CCC4)c3)cc12 [Compound 10002] here?
**A.** Its EC50 is < 0.1 µM.

**Q.** With CNC(=O)c1c(-c2ccc(F)cc2)oc2nc(Cl)c(-c3ccc(OC)c(C(=O)NC4(C#N)CCCC4)c3)cc12 [Compound 10003] as the molecule, how does the EC50 [1] read?
**A.** Its EC50 is < 0.1 µM.

**Q.** How did the EC50 [1] turn out when CNC(=O)c1c(-c2ccc(F)cc2)oc2nc(Cl)c(-c3cccc(C(=O)NC(C)(C)C#N)c3)cc12 [Compound 10004] was run?
**A.** Its EC50 is 0.1 to 1 µM.

**Q.** And the EC50 [2]?
**A.** The EC50 was 0.105 µM.

**Q.** For CNC(=O)c1c(-c2ccc(F)cc2)oc2nc(Cl)c(-c3cccc(C(=O)NC4(C#N)CCC4)c3)cc12 [Compound 10005], which EC50 [1] is on record?
**A.** The EC50 was < 0.1 µM.

**Q.** With CNC(=O)c1c(-c2ccc(F)cc2)oc2nc(Cl)c(-c3cccc(C(=O)NC4(C#N)CCCC4)c3)cc12 [Compound 10006] as the molecule, how does the EC50 [1] read?
**A.** The EC50 was < 0.1 µM.

**Q.** What about the EC50 [2] of the same molecule?
**A.** The EC50 was 0.076 µM.

**Q.** For CNC(=O)c1c(-c2ccc(F)cc2)oc2nc(CCC(F)(F)F)c(-c3cccc(C(=O)NC4(C#N)CCC4)c3)cc12 [Compound 11002], which EC50 [1] is on record?
**A.** Its EC50 is < 0.1 µM.

**Q.** Which EC50 [1] does the source give for CNC(=O)c1c(-c2ccc(F)cc2)oc2nc(CCC(F)(F)F)c(-c3cccc(C(=O)NC4(C#N)CCCC4)c3)cc12 [Compound 11003] here?
**A.** The EC50 was < 0.1 µM.

**Q.** And the EC50 [2]?
**A.** Its EC50 is 0.0046 µM.

**Q.** How did the EC50 [1] turn out when CNC(=O)c1c(-c2ccc(F)cc2)oc2nc(CCC(F)(F)F)c(-c3cccc(C(=O)NC(C)(C#N)C(C)C)c3)cc12 (stereo not shown) [Compound 11004] was run?
**A.** The EC50 was < 0.1 µM.

**Q.** For CNC(=O)c1c(-c2ccc(F)cc2)oc2nc(CCC(F)(F)F)c(-c3cccc(C(=O)NC(C)(C#N)C4CC4)c3)cc12 (stereo not shown) [Compound 11005], which EC50 [1] is on record?
**A.** The EC50 was < 0.1 µM.

**Q.** Which EC50 [2] does the source give for CNC(=O)c1c(-c2ccc(F)cc2)oc2nc(CCC(F)(F)F)c(-c3cccc(C(=O)NC(C)(C#N)C4CC4)c3)cc12 (stereo not shown) [Compound 11006] here?
**A.** Its EC50 is 0.0022 µM.

**Q.** And the EC50 (read-out: EC50 1b (class))?
**A.** Its EC50 is < 0.1 µM.

**Q.** With CNC(=O)c1c(-c2ccc(F)cc2)oc2nc(CCC(F)(F)F)c(-c3cccc(C(=O)NC(C)(C#N)C4CC4)c3)cc12 (stereo not shown) [Compound 11007] as the molecule, how does the EC50 (read-out: EC50 1b (class)) read?
**A.** Its EC50 is < 0.1 µM.

**Q.** And the EC50 (read-out: EC50 (uM) 1b)?
**A.** The EC50 was 0.0027 µM.

**Q.** CNC(=O)c1c(-c2ccc(F)cc2)oc2nc(CCC(F)(F)F)c(-c3cccc(C(=O)NC(C)(C#N)CF)c3)cc12 (stereo not shown) [Compound 11012] was tested. Which EC50 [1] did it give?
**A.** Its EC50 is < 0.1 µM.

**Q.** Which results are given for CNC(=O)c1c(-c2ccc(F)cc2)oc2nc(CCC(F)(F)F)c(-c3ccc(OC)c(C(=O)NC(C)(C)C#N)c3)cc12 [Compound 12001]?
**A.** EC50 [1]: < 0.1 µM; EC50 [2]: 0.0025 µM

**Q.** How did the EC50 [1] turn out when CNC(=O)c1c(-c2ccc(F)cc2)oc2nc(CCC(F)(F)F)c(-c3ccc(OC)c(C(=O)NC4(C#N)CCC4)c3)cc12 [Compound 12002] was run?
**A.** Its EC50 is < 0.1 µM.

**Q.** For CNC(=O)c1c(-c2ccc(F)cc2)oc2nc(CCC(F)(F)F)c(-c3ccc(OC)c(C(=O)NC4(C#N)CCCC4)c3)cc12 [Compound 12003], which EC50 [1] is on record?
**A.** Its EC50 is < 0.1 µM.

**Q.** CNC(=O)c1c(-c2ccc(F)cc2)oc2nc(CCC(F)(F)F)c(-c3ccc(OC)c(C(=O)NC(C)(C#N)C(C)C)c3)cc12 (stereo not shown) [Compound 12004] was tested. Which EC50 [1] did it give?
**A.** Its EC50 is < 0.1 µM.

**Q.** What about the EC50 [2] of the same molecule?
**A.** The EC50 was 0.0033 µM.

**Q.** CNC(=O)c1c(-c2ccc(F)cc2)oc2nc(CCC(F)(F)F)c(-c3ccc(F)c(C(=O)NC(C)(C#N)C(C)C)c3)cc12 (stereo not shown) [Compound 13002] was tested. Which EC50 [1] did it give?
**A.** The EC50 was < 0.1 µM.

**Q.** And the EC50 [2]?
**A.** Its EC50 is 0.0024 µM.

**Q.** CNC(=O)c1c(-c2ccc(F)cc2)oc2nc(CCC(F)(F)F)c(-c3ccc(F)c(C(=O)NC(C)C#N)c3)cc12 (stereo not shown) [Compound 13003] was tested. Which EC50 [1] did it give?
**A.** Its EC50 is < 0.1 µM.

**Q.** For CNC(=O)c1c(-c2ccc(F)cc2)oc2nc(CCC(F)(F)F)c(-c3ccc(F)c(C(=O)NC(C)C#N)c3)cc12 (stereo not shown) [Compound 13004], which EC50 (read-out: EC50 1b (class)) is on record?
**A.** The EC50 was < 0.1 µM.

**Q.** With CNC(=O)c1c(-c2ccc(F)cc2)oc2nc(CCC(F)(F)F)c(-c3ccc(F)c(C(=O)NC(C)C#N)c3)cc12 (stereo not shown) [Compound 13005] as the molecule, how does the EC50 (read-out: EC50 1b (class)) read?
**A.** The EC50 was < 0.1 µM.

**Q.** For CNC(=O)c1c(-c2ccc(F)cc2)oc2nc(CCC(F)(F)F)c(-c3ccc(F)c(C(=O)NC(C)(C#N)C4CC4)c3)cc12 (stereo not shown) [Compound 13006], which EC50 [1] is on record?
**A.** Its EC50 is < 0.1 µM.

**Q.** And the EC50 [2]?
**A.** Its EC50 is 0.0036 µM.

**Q.** Which EC50 [1] does the source give for CNC(=O)c1c(-c2ccc(F)cc2)oc2nc(CCC(F)(F)F)c(-c3cc(F)cc(C(=O)NC(C)(C)C#N)c3)cc12 [Compound 14001] here?
**A.** The EC50 was < 0.1 µM.

**Q.** What about the EC50 [2] of the same molecule?
**A.** The EC50 was 0.0022 µM.
